Assay results from patent US11324799B2, “Gap junction intercellular communication modulators and their use for the treatment of diabetic eye disease” (ZEALAND PHARMA A/S, priority 2017, dated 2022).

Experiments:
[1] = system: streptozotocin (STZ)-induced diabetic rats; experiment: Follow-up study, 15 weeks of diabetes: AC and PL in retinal trypsin digests, intravitreal or osmotic pump delivery; type: in vivo, rat; conditions: for number of PL / development of AC: diabetic rats, 15 weeks; for number of AC (FIG. 2) / number of PL (FIG. 2): diabetic rat retinas
Method: (§1) All animal studies were performed according to the ARVO Statement for the Use of Animals in Ophthalmic and Vision Research. In the pilot study to determine the optimal concentration of danegaptide, twelve Sprague-Dawley male rats, each weighing 200 g, were used. Nine of the twelve rats were injected intraperitoneally with streptozotocin (STZ) (55 mg/kg body weight) to induce diabetes for 6 weeks. The remaining 3 animals served as non-diabetic controls. After 6 weeks of diabetes, the animals were killed and retinas were isolated. In the follow-up study to determine the effect of 1000 nM danegaptide on the number of AC and PL, thirty-six Sprague-Dawley male rats, each weighing 200 g, were used. Thirty of the thirty-six rats were injected with STZ to induce diabetes for 15 weeks. The remaining six animals served as non-diabetic controls. After 15 weeks of diabetes, the animals were killed and retinas were isolated. The glucose concentration in blood and urine were checked after 2 or 3 days after STZ injection to confirm diabetes status in the animals. Blood glucose levels were measured in each animal 2-3 times weekly and at the time of death. The diabetic group represented rats with blood glucose levels of >350 mg/dL. The diabetic rats received NPH insulin injection as needed to maintain blood glucose levels.
The enucleated eyes were placed in 10% formalin for at least 24 hrs. The eyes were then cut in half with a razor blade, and the retinas were isolated and placed into 0.5M glycine for 24-48 hrs. RTD was performed as described in Kuwabara & Cogan (Studies of retinal vascular patterns. I. Normal architecture. Archives of ophthalmology 1960; 64:904-911). Each retina went through a series of washes with 3% trypsin, and the non-vascular mass of the retina was removed. The retinal capillary network was then isolated and mounted onto a silane-coated slide.
RTDs were stained with periodic acid-Schiff and hematoxylin as described in Bobbie et al. (Reduced connexin 43 expression and its effect on the development of vascular lesions in retinas of diabetic mice. Investigative ophthalmology & visual science 2010; 51:3758-3763). Ten representative fields were imaged using a digital camera attached to a microscope and the images were analyzed for AC and PL. Apoptotic pericytes were identified as PL based on prominent histological characteristics, including basement membrane protrusion as empty shell. Capillaries devoid of both pericytes and endothelial cells were considered as AC.
To determine the optimal concentration of danegaptide (DG), a Cx43 gap junction coupler, two concentrations (200 nM or 1000 nM) were tested via intravitreal injections in streptozotocin (STZ)-induced diabetic rats. Diabetes was induced via STZ for 6 weeks and at the end of the study, eyes were enucleated, and retinas subjected to retinal trypsin digestion (RTD) for isolation of capillary networks and stained with Hematoxylin and Periodic Acid Schiff's (PAS) reagent to analyze the number of acellular capillaries (AC) and pericyte loss (PL). Based on this pilot study, 1000 nM danegaptide was injected intravitreally in the follow-up study to determine the effect of improved cell coupling on retinal vascular cell death. Additionally, danegaptide was administered systemically using osmotic pumps. The number of rats used in this study was at least 6 per group. Overall, rats were divided into 6 groups: wild type (WT) control rats, STZ-induced diabetic rats, diabetic rats intravitreally injected with danegaptide, diabetic rats intravitreally injected with water, diabetic rats systemically delivered with danegaptide, and diabetic rats systemically delivered with water. Diabetes was induced via STZ for 15 weeks and at the end of the study, retinas were isolated and subjected to RTD for analyses of AC and PL. […]

[2] = system: Rat retinal endothelial cells (RRECs); experiment: Apoptosis by differential dye staining assay; type: cell-based; conditions: HG (30 mM) medium, 100 nM, 3, 5 and 7 days
Method: (§2) Rat retinal endothelial cells (RRECs) were grown for 3, 5, and 7 days in normal (N; 5 mM) or HG (30 mM) medium; in parallel, cells grown in HG medium were exposed for 3, 5, and 7 days to 100 nM Danegaptide (DG), an AAP10 analogue, which stabilizes Cx43 mediated cell coupling. In addition, cells grown in N medium were treated with a Cx43 blocker (negative control) which inhibits GJ coupling, or a positive control AAP10, protecting GJIC. To determine GJIC, scrape load dye transfer (SLDT) assay was performed at the three time points. Similarly, cells were assessed for apoptosis and cell monolayer permeability by differential dye staining assay and in vitro permeability assay, respectively.

[3] = system: Rat retinal endothelial cells (RRECs); experiment: In vitro cell monolayer permeability assay; type: cell-based; conditions: HG (30 mM) medium, 100 nM
Method: as §2

[4] = system: streptozotocin (STZ)-induced diabetic rats; experiment: Pilot study, 6 weeks of diabetes: AC and PL in retinal trypsin digests after intravitreal injection; type: in vivo, rat; conditions: n=3
Method: as §1, with “After 15 weeks of diabetes, the animals were killed and retinas were isolated. The glucose concentration in blood and urine were checked after 2 or 3 days after STZ injection to confirm diabetes status in the animals.” left out, “The diabetic group represented rats with blood glucose levels of >350 mg/dL. The diabetic rats received NPH insulin injection as needed to maintain blood glucose levels.” left out
RTDs were stained with periodic acid-Schiff and hematoxylin as described in Bobbie et al. (Reduced connexin 43 expression and its effect on the development of vascular lesions in retinas of diabetic mice. Investigative ophthalmology & visual science 2010; 51:3758-3763). Ten representative fields were imaged using a digital camera attached to a microscope and the images were analyzed for AC and PL. […]

[5] = system: Primary retinal endothelial cells from rats; experiment: Transcriptomic effects in an in vitro diabetic retinopathy model; type: cell-based, rat; conditions: HG medium
Method: The transcriptomic effects of danegaptide in an in vitro diabetic retinopathy model were investigated to 1) reveal transcriptomic changes in diabetic-like conditions with or without danegaptide and 2) associate functional effects previously observed to transcriptomic modifications and 3) identify pathways involved in danegaptide effects on relevant cells under diabetes-like conditions. Primary retinal endothelial cells from rats were plated for in vitro experiments under four experiments conditions, Normal Glucose medium (NG), High Glucose medium (HG), High Glucose medium+Danegaptide 100 nM (HG_DG100) and High Glucose medium+Danegaptide 1000 nM (HG_DG1000). The samples were assessed at four time points (4 hours after plating, 1 day after plating, 3 days after plating and 5 days after plating).

diabetic rats = experiment: In vivo permeability (IVP): extravasation of FITC-dextran in retinal capillaries; design: species or system rat; conditions: for vascular leakage (FIG. 3): diabetic rat retinas; for vascular leakage: 15 weeks
Method: To determine if improvement in Cx43-mediated gap junction intercellular communication (GJIC) prevents retinal vascular cell death and excess retinal vascular permeability, danegaptide was administered intravitreally or via osmotic pumps in rats. 60 male Sprague Dawley rats were randomly assigned into six groups, each consisting of 10 rats: non-diabetic rats, diabetic rats, diabetic rats intravitreally injected with DG (1000 nM concentration), diabetic rats intravitreally injected with sterile water as vehicle, diabetic rats treated systemically with DG (70 mg/mL to achieve 100 nM plasma DG concentration) via osmotic pumps, and diabetic rats treated systemically via osmotic pump with sterile water as control. Diabetes was induced for 15 weeks and at the end of the study all animals were examined and subsequently sacrificed and their retinas were examined for (i) in vivo permeability (IVP), (ii) RTD, and (iii) optical coherence tomography (OCT) for analyses of vascular leakage, AC and PL, and retinal thickness, respectively.
To determine the effect of improved cell-cell coupling on retinal vascular permeability under hyperglycemic stress, extravasation of FITC-dextran was assessed in the retinal capillaries following FITC-dextran tail vein injection performed shortly before animals were sacrificed.

[6] = system: Rat retinal endothelial cells (RRECs); experiment: Scrape load dye transfer (SLDT) assay of GJIC; type: cell-based; conditions: HG (30 mM) medium, 100 nM, 3, 5 and 7 days
Method: as §2

[7] = intravitreal (IV) injection vs IV injection of water
[8] = osmotic pumps (OP) vs water via OP

In the case of NCC(=O)N1C[C@H](NC(=O)c2ccccc2)C[C@H]1C(=O)O [danegaptide, (2S,4R)-1-(2-aminoacetyl)-4-benzoylamino-pyrrolidine-2-carboxylic acid], the “number of PL” value ([1]; intravitreal 1000 nM) is reported as 112±62 % of control, the “number of AC (FIG. 2)” value [1, 7] is reported as “significantly reduced” and the “number of PL (FIG. 2)” value [1, 7] is reported as “significantly reduced”. For the same compound, the “development of AC” value ([1]; intravitreal injections 1000 nM) was 134±28 % of control, the “number of AC (FIG. 2)” value [1, 8] was “significantly reduced” and the “number of PL (FIG. 2)” value [1, 8] was “significantly reduced”. For the same compound, the “development of AC” value ([1]; systemic (osmotic pump)) was 133±37 % of control, the “number of PL” value ([1]; systemic (osmotic pump)) was 103±65 % of control and the HG-induced apoptosis [2] was “rescued cells from HG-induced apoptosis at all three time points”. For the same compound, the cell monolayer permeability [3] was “significantly decreased by day 5”, the “number of PL (pericyte loss)” value ([4]; intravitreal injection 1000 nM, vs untreated diabetic rat retinas) was “significantly reduced” and the “number of AC (acellular capillaries)” value ([4]; intravitreal injection 200 or 1000 nM) was “decreased in the danegaptide treated groups but fell short of statistical significance”. The “Fscn3 expression (downregulated in HG versus NG)” value [5] was “reverse by danegaptide”, the “expression of genes differentially expressed in high glucose vs normal glucose” value ([5]; 100 or 1000 nM, 4 h and 1 d) was “reverses expression of some genes” and the “Tpcn2 expression (downregulated in HG versus NG)” value ([5]; 4 h) was “reversed by danegaptide”. The “Cacybp expression (downregulated in HG versus NG)” value ([5]; 1 d) was “reversed by danegaptide”, the “expression of transcripts Dnm1I, Nucb2, Trmt10a (down-regulated under HG)” value ([5]; day 1) was “generally increased the expression” and the “vascular leakage (FIG. 3)” value (diabetic rats; IV injection vs IV injection of water) was “significantly reduced”. The “difference in vascular leakage between intravitreal and systemic treatment” value (diabetic rats; diabetic rats) was “no significant difference”, the vascular leakage (diabetic rats; intravitreal DG 1000 nM, diabetic rats) was 149±22 % of control and the “vascular leakage (FIG. 3)” value (diabetic rats; [8]) was “significantly reduced”. The vascular leakage (diabetic rats; systemic DG via osmotic pump (100 nM plasma target), diabetic rats) was 143±14 % of control and the “GJIC (SLDT assay)” value [6] was “preserved GJIC”.
